Reference: patent US20160279204A1, “PEPTIDES AND PHARMACEUTICAL COMPOSITIONS FOR USE IN THE TREATMENT BY NASAL ADMINISTRATION OF PATIENTS SUFFERING FROM ANXIETY AND SLEEP DISORDERS” (MAX-PLANCK-GESELLSCHAFT ZUR FÖRDERUNG DER WISSENSCHAFT E.V., priority 2011, published 2016)
“Also recorded” adds a separate entry of the source.

System: C57BL/6N mice
Assay: Open field after bilateral NPS injection into CA1 of the VH
Type: in vivo, mouse
Settings: 0.1 nmol NPS each side into CA1 of VH, 30 min
Procedure: Animals were fixed in a stereotactic frame and maintained under isoflurane anesthesia (Forene® 100%, V/V; induction: 2.5%; maintenance: 1.5%; in O2; flow rate: 1 L/min). The mice received acute analgesic treatment with Metacam s.c. during surgery (0.5 mg/kg; in NaCl). 23 gauge stainless-steel guide cannulas were implanted in the CA1 region of the VH at the following coordinates: 3.1 mm posterior, ±3 mm lateral from bregma, and 2 mm ventral from the skull surface (Franklin and Paxinos, 2007). The guide cannulas were fixed with two screws and a two-component adhesive. For behavioural experiments, animals were implanted bilaterally for later bilateral injection, whereas for Cy3-NPS injections, implantation was performed unilaterally. The animals were allowed to recover for at least 6 days before starting the behavioural experiments. Substance infusions were carried out manually, on mice anesthetised by brief inhalation of isoflurane, using a 30 gauge injection cannula connected to a Tygon tube and a 10 μL Hamilton syringe. […]
Mice were injected bilaterally either with 0.1 nmol NPS in 0.5 μL ACSF for each side or with 0.5 μL of ACSF for each side. […] Animal behaviour was videotaped and relevant parameters were analysed using the tracking software ANY-maze version 4.30 (Stoelting, Wood Dale, Ill., USA). […]

## neuropeptide S (SFRNGVGSGVKKTSFRRAKQ; Neuropeptide S; UniProt P0C0P7 70-89, looked up) [NPS, peptide agonist of neuropeptide S receptor (NPSR); native NPS, rat, from Bachem]
  distance traveled / locomotion in the open field: did not affect locomotion; also recorded: not changed
